In brackets after ≈: the same amount, converted by molar mass.

Data on one molecule can be found in patent publication US11628144B2, “Iniparib formulations and uses thereof” (TriAct Therapeutics, Inc., priority 2017, dated 2023).

A short description of series [1]: Solubility of iniparib in purified water. The series is classed as physicochemical.
For series [2] the following is noted: tissues including brain and cerebrospinal fluid (CSF); cited from earlier work.
In series [3] the test system is cancer cells, including drug resistant cell lines. The note with it: cited from earlier work.
For series [4], the target named is poly [ADP-ribose] polymerase 1 (PARP1) (Homo sapiens, UniProt P09874). The note with it: observed in several studies; cited from earlier work.
Sequence of poly [ADP-ribose] polymerase 1 (PARP1) (P09874 whole entry, species assumed): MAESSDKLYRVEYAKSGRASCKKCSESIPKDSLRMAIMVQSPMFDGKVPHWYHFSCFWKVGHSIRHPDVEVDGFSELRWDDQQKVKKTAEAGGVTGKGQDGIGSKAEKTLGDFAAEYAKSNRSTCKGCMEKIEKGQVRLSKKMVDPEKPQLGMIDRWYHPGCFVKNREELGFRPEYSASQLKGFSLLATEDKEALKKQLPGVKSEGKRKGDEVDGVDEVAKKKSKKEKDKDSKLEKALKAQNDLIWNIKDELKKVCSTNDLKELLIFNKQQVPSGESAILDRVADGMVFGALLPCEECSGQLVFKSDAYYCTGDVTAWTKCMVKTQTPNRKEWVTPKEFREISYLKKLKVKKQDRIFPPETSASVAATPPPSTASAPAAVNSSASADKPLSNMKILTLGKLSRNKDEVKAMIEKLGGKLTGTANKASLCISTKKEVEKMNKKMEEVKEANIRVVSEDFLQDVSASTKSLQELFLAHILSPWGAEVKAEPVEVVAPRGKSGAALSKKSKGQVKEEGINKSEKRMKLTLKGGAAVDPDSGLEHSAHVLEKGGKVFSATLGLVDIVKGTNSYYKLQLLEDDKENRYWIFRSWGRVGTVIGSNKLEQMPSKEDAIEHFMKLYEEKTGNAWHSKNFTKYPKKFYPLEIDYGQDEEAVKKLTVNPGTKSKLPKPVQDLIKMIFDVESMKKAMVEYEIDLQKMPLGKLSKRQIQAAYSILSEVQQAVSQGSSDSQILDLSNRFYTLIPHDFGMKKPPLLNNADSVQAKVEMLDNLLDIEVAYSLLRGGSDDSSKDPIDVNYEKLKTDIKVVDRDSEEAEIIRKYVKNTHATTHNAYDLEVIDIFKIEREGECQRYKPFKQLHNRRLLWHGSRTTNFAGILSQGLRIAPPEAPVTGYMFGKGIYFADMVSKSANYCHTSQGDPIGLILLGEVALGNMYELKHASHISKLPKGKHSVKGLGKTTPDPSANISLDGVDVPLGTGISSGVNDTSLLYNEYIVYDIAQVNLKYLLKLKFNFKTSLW

As a reminder, the solubility is the concentration that dissolves in the medium under given conditions. Turning to `NC(=O)c1ccc(I)c([N+](=O)[O-])c1` [Iniparib, 4-iodo-3-nitrobenzamide], the solubility in series [1] is around 0.182 mg/mL (≈ 623 µM). Moreover, the distribution into tissues result in series [2] was “distributes rapidly and widely into tissues, including the brain and cerebrospinal fluid (CSF)”. The “activity against cancer cells in vitro” value in series [3] was “active against a broad range of cancer cells in vitro”. Also, the “potency against PARP1” value in series [4] is listed as “low potency”.
